Consider 23 compounds from patent publication US9283222B2 (priority 2006, dated 2016).

What is called pKi is the negative decadic logarithm of the Ki, by convention in mol/L.

pKi: −log10 of the molar value. Read-outs that look alike come from different tables or passages of the source.

Test [1] concerns the target Recombinant Human Poly(ADP-Ribose) Polymerase (PARP), PARP-1 (Homo sapiens (Human), UniProt P09874). The following applies: read-out: PARP-1 (Ki).
Another test deals with PARP in C41 cells (Homo sapiens (Human), UniProt P09874).
Sequence of PARP in C41 cells (P09874 whole entry): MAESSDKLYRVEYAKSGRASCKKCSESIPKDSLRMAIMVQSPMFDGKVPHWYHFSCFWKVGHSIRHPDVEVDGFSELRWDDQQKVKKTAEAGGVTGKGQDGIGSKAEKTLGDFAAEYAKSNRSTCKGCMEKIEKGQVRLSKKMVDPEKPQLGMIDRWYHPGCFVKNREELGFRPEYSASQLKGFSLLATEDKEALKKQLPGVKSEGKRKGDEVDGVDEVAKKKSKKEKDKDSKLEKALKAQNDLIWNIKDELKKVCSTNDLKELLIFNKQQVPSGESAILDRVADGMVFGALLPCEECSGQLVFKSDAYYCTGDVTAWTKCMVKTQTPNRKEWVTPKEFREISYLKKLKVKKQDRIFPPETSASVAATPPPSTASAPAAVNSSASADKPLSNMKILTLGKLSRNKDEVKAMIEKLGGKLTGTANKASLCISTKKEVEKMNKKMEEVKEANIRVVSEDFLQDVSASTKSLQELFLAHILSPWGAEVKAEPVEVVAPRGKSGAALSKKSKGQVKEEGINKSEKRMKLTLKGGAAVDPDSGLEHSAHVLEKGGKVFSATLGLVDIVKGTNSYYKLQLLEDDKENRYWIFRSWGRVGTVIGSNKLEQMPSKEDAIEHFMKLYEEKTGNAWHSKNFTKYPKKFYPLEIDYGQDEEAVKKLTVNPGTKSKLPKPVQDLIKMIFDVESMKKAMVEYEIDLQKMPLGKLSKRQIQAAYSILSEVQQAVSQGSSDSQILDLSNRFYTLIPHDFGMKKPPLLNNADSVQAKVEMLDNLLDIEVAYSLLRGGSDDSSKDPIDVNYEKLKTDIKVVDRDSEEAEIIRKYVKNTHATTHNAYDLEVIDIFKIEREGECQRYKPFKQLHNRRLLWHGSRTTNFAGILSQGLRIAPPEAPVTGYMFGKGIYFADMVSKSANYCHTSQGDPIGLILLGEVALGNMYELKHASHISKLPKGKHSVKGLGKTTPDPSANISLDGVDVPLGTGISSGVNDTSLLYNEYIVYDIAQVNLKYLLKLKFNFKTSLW
Setting [2] is: Table 3, H analogs versus para-F analogs.
Where [3] appears, read: Table 3, C41 cells, ratio to comparator EC50.

Sequence of Recombinant Human Poly(ADP-Ribose) Polymerase (PARP), PARP-1 (P09874 whole entry): as above

Take `NCC(=O)Nc1cc(Cc2n[nH]c(=O)c3c2CCCC3)ccc1F`: in test [1] (setting [2]), the pKi was 8.54. The “Cell EC50 ratio” value on PARP in C41 cells was 5.8.

Regarding `O=C(Nc1cc(Cc2n[nH]c(=O)c3c2CCCC3)ccc1F)C1CNC1`, the negative-log Ki (pKi) in test [1] (setting [2]) is 9.15. In addition, the “Cell EC50 ratio” value at PARP in C41 cells is recorded as 34.4.

In the case of `O=C1CCCN1c1cc(Cc2n[nH]c(=O)c3c2CCCC3)ccc1F` [drawing 7], the pKi in test [1] (Table 2, A2 is C1-alkyl versus no A2 (bond)) was 8.92. Further, the “Cell Ratio EC50” value on PARP in C41 cells is reported as 0.85.

For `NCC(=O)Nc1cccc(Cc2n[nH]c(=O)c3c2CCCC3)c1` [drawing 10], the negative-log Ki (pKi) in test [1] (setting [2]) was 7.92. Further, at PARP in C41 cells (setting [3]), the “Cell EC50 ratio” value came to 22.5.

`O=C(Nc1cccc(Cc2n[nH]c(=O)c3c2CCCC3)c1)C1CNC1` [drawing 12]: in test [1] (setting [2]), the pKi was 8.20. For the same compound, the “Cell EC50 ratio” value at PARP in C41 cells was 246.

For the compound `COc1ccc(C(=O)CCC(=O)Nc2cccc(Cc3n[nH]c(=O)c4c3CCCC4)c2)cc1` [drawing 14], in test [1] (setting [2]), the pKi is 8.72. In addition, the “Cell EC50 ratio” value on PARP in C41 cells (setting [3]) came to 20.9.

Regarding `COc1ccc(C(=O)CCC(=O)Nc2cc(Cc3n[nH]c(=O)c4c3CCCC4)ccc2F)cc1` [drawing 15], the pKi in test [1] (setting [2]) is 9.15. For the same compound, the “Cell EC50 ratio” value on PARP in C41 cells (setting [3]) is listed as 2.6.

Take `O=C1CCCN1c1cccc(Cc2n[nH]c(=O)c3c2CCCC3)c1` [drawing 16]: the negative logarithm of the Ki (pKi) in test [1] (setting [2]) is 7.40. In addition, the “Cell EC50 ratio” value on PARP in C41 cells (setting [3]) was determined as 40.9.

As to `O=C1CCCN1c1cc(Cc2n[nH]c(=O)c3c2CCCC3)ccc1F` [drawing 17], the pKi in test [1] (setting [2]) is 8.92. The “Cell EC50 ratio” value at PARP in C41 cells worked out at 0.85.

Turning to `O=C(CCCC(=O)Nc1cccc(Cc2n[nH]c(=O)c3c2CCCC3)c1)Nc1ccccc1` [drawing 20], the pKi in test [1] (setting [2]) was 8.49. For the same compound, the “Cell EC50 ratio” value at PARP in C41 cells (setting [3]) was 3.2.

Turning to `O=C(CCCC(=O)Nc1cc(Cc2n[nH]c(=O)c3c2CCCC3)ccc1F)Nc1ccccc1` [drawing 21], the pKi in test [1] (setting [2]) is 9.22. The “Cell EC50 ratio” value on PARP in C41 cells (setting [3]) stood at 0.34.

For the compound `Cc1c(C(=O)Nc2cccc(Cc3n[nH]c(=O)c4c3CCCC4)c2)cnn1-c1ccccc1` [drawing 22], the pKi in test [1] (setting [2]) was 8.05. Also, the “Cell EC50 ratio” value on PARP in C41 cells (setting [3]) was 14.1.

As to `Cc1c(C(=O)Nc2cc(Cc3n[nH]c(=O)c4c3CCCC4)ccc2F)cnn1-c1ccccc1` [drawing 23], in test [1] (setting [2]), the pKi is 7.80. Further, the “Cell EC50 ratio” value at PARP in C41 cells (setting [3]) was 17.6.

With `O=C(c1cccc(Cc2n[nH]c(=O)c3c2CCCC3)c1)N1CCN(c2ncccn2)CC1` [drawing 26], the negative-log Ki (pKi) in test [1] (setting [2]) is 9.10. The “Cell EC50 ratio” value on PARP in C41 cells (setting [3]) was determined as 0.93.

Take `O=C(c1cc(Cc2n[nH]c(=O)c3c2CCCC3)ccc1F)N1CCN(c2ncccn2)CC1` [drawing 27]: the negative-log Ki (pKi) in test [1] (setting [2]) was 9.15. Further, at PARP in C41 cells (setting [3]), the “Cell EC50 ratio” value was 0.3.

Regarding `CC(=O)N1CCN(C(=O)c2cccc(Cc3n[nH]c(=O)c4c3CCCC4)c2)CC1` [drawing 28], the pKi in test [1] (setting [2]) is 8.52. The “Cell EC50 ratio” value at PARP in C41 cells is 6.1.

Regarding `CC(=O)N1CCN(C(=O)c2cc(Cc3n[nH]c(=O)c4c3CCCC4)ccc2F)CC1` [drawing 29], the negative-log Ki (pKi) in test [1] (setting [2]) was 10.00. For the same compound, the “Cell EC50 ratio” value at PARP in C41 cells (setting [3]) came out at 2.3.

Take `CCN1CCN(C(=O)c2cccc(Cc3n[nH]c(=O)c4c3CCCC4)c2)CC1` [drawing 30]: in test [1] (setting [2]), the negative-log Ki (pKi) is 8.00. Besides, the “Cell EC50 ratio” value at PARP in C41 cells (setting [3]) was 1.8.

Take `CCN1CCN(C(=O)c2cc(Cc3n[nH]c(=O)c4c3CCCC4)ccc2F)CC1` [drawing 31]: the pKi in test [1] (setting [2]) was 8.74. On PARP in C41 cells (setting [3]), the “Cell EC50 ratio” value worked out at 0.4.

Turning to `O=C(c1cccc(Cc2n[nH]c(=O)c3c2CCCC3)c1)N1CCN(c2ccccn2)CC1` [drawing 32], the pKi in test [1] (setting [2]) was 8.52. The “Cell EC50 ratio” value on PARP in C41 cells (setting [3]) stood at 1.9.

With `O=C(c1cc(Cc2n[nH]c(=O)c3c2CCCC3)ccc1F)N1CCN(c2ccccn2)CC1` [drawing 33], the negative-log Ki (pKi) in test [1] (setting [2]) was 8.70. For the same compound, at PARP in C41 cells (setting [3]), the “Cell EC50 ratio” value is given as 0.4.

For `O=C(c1cccc(Cc2n[nH]c(=O)c3c2CCCC3)c1)N1CCN(c2ccccc2)CC1` [drawing 34], the pKi in test [1] (setting [2]) is 8.52. In addition, the “Cell EC50 ratio” value at PARP in C41 cells (setting [3]) is 3.2.

In the case of `O=C(c1cc(Cc2n[nH]c(=O)c3c2CCCC3)ccc1F)N1CCN(c2ccccc2)CC1` [drawing 35], the negative logarithm of the Ki (pKi) in test [1] (setting [2]) was 8.52. At PARP in C41 cells (setting [3]), the “Cell EC50 ratio” value was determined as 0.9.
